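1) Cells in 96-well plates. 2) Compound, 48 h, 5 concentrations. 3) Linear interpolation between surrounding doses. 4) Unreached endpoint = highest concentration. GI50: concentration for 50% inhibition of growth. TGI: concentration producing complete growth inhibition.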
Key:
Assay in all cases: NCI tumour cell line growth inhibition, 48 h
[1] = tested on: A549 NSCLC
[2] = tested on: ACHN renal
[3] = tested on: HCC-2998 colon
[4] = tested on: HL-60(TB) leukemia
[5] = tested on: HOP-62 NSCLC
[6] = tested on: NCI-H23 lung
[7] = tested on: SF-268 CNS
[8] = tested on: SF-295 CNS
[9] = tested on: UACC-257 melanoma
[10] = tested on: CCRF-CEM leukemia

| Compound | TGI [1] [µM] | TGI [2] [µM] | TGI [3] [µM] | TGI [4] [µM] | TGI [5] [µM] | TGI [6] [µM] | TGI [7] [µM] | TGI [8] [µM] | TGI [9] [µM] | GI50 [1] [µM] | GI50 [2] [µM] | GI50 [4] [µM] | GI50 [5] [µM] | GI50 [6] [µM] | GI50 [7] [µM] | GI50 [8] [µM] | GI50 [9] [µM] | GI50 [10] [µM] | TGI [10] [µM] | GI50 [3] [µM] |
| --- | --- | --- | --- | --- | --- | --- | --- | --- | --- | --- | --- | --- | --- | --- | --- | --- | --- | --- | --- | --- |
| c1ccc2sc(SCCSc3nc4ccccc4s3)nc2c1 | > 100 | > 100 | > 100 | > 100 | > 100 | > 100 | > 100 | > 100 | > 100 | – | – | – | – | – | – | – | – | – | – | – |
| Cc1cc(S(=O)(=O)Nc2nc3ccccc3o2)c(SCc2ccccc2)cc1Cl | 45.3 | 38.4 | – | > 100 | > 100 | 40.3 | 47.7 | 57 | 50.2 | 21.7 | 17.9 | 36.9 | 28.5 | 19 | 18.9 | 19.2 | 21.2 | – | – | – |
| COc1ccc(C(c2cc(OC)c(OC)c(OC)c2)n2ccnc2)cc1O (stereo not given) | > 100 | > 100 | > 100 | 0.628 | > 100 | > 100 | > 100 | – | > 100 | 0.838 | 0.693 | 0.229 | 0.516 | 0.882 | 0.731 | – | 1.44 | 0.289 | > 100 | 1.72 |
| COC(=O)CC(NC(=O)OCc1ccccc1)C(C(C)=O)C(=O)OCc1ccccc1 (stereo not given) | > 31.6 | > 31.6 | – | > 31.6 | – | > 31.6 | > 31.6 | > 100 | > 31.6 | – | – | – | – | – | – | – | – | – | > 31.6 | – |
| Cc1ccc(S(=O)(=O)OCCn2cnc3nc(NC(=O)c4ccccc4)[nH]c(=O)c32)cc1 | > 100 | > 100 | – | > 100 | > 100 | – | > 100 | > 100 | > 100 | – | – | – | – | – | – | – | – | – | > 100 | – |
| Cc1cc(O)c(=O)cc2c1C[C@H]1CC(C)(C)/C=C/C[C@]3(C)Oc4cc(=O)c(O)cc(C)c4C[C@H]3C[C@H](O)[C@@]1(C)O2 | 2.13 | 14.5 | > 100 | 0.102 | 0.0987 | 0.0345 | > 63.1 | – | 0.0895 | < 0.01 | < 0.01 | 0.0249 | 0.02 | < 0.01 | < 0.01 | – | 0.0215 | 0.0163 | 1.21 | < 0.0149 |
| COc1ccc(C2=N[C@@H](Cc3ccccc3)C(=O)Nc3ccsc32)cc1 | 29.5 | 39.1 | 25.8 | 19.3 | 19.1 | 39.6 | 43.8 | – | 36.7 | 4.69 | 6.27 | 3.91 | 5.81 | 11.1 | 10.4 | – | 11.6 | 3.46 | 28.1 | 12 |
| Nc1ncnc2c1ncn2[C@]1(CO)C=C(CO)C(O)C1O (stereo not given in full) | > 100 | > 100 | > 100 | > 100 | > 100 | > 100 | > 100 | > 100 | > 100 | – | – | – | – | – | – | – | – | – | – | – |
| Cc1nc2ccc(Nc3nc(Cl)nc(N4CCOCC4)n3)cc2n1Cc1ccccc1 | > 100 | 28.7 | 3.85 | – | > 100 | 3.92 | > 100 | 82 | > 100 | 50.3 | 9.35 | – | 16.2 | 1.94 | 3.11 | 11.9 | 5.93 | 2.93 | > 100 | 2.05 |
| CC(=O)OCC1OC(n2cc(F)c(=O)[nH]c2=O)C(NC(=O)N(CCCl)N=O)C(OC(C)=O)C1OC(C)=O (stereo not given) | > 100 | > 100 | – | > 100 | > 100 | > 100 | > 100 | > 100 | > 100 | – | – | – | – | – | – | – | – | – | > 100 | – |
| Cn1c2c(c3ccccc31)CCN(CCCCN1CCCCC1)C2=O | > 100 | > 100 | – | > 100 | > 100 | > 100 | > 100 | > 100 | > 100 | – | – | – | – | – | – | – | – | – | > 100 | – |
| c1cc(NNc2cccc(-c3nn[nH]n3)c2)cc(-c2nn[nH]n2)c1 | > 100 | > 100 | – | – | > 100 | > 100 | > 100 | > 100 | > 100 | – | – | – | – | – | – | – | – | – | – | – |
| CCN(CCCN(C)C)Cc1cc(I)cc(C)c1O | 90 | 58.6 | 32.2 | 41.5 | 34.4 | > 100 | 45.7 | 31.9 | 32.5 | 28.3 | 24.9 | 20 | 17 | 97.2 | 18.7 | 15.9 | 16.3 | – | – | 16.1 |

— PubChem BioAssay (NCI)
